Test results published in patent US20080096208A1, “BIOMARKERS FOR ASSESSING RESPONSE TO C-MET TREATMENT” (priority 2006, published 2008).

Assays:
[1] = system: PC-3 prostate carcinoma cells; test: Taqman real-time PCR of marker mRNA levels in HGF-stimulated PC-3 cells; format: cell-based
Text: In order to identify biomarkers for the HGF response and potential inhibition of this response by small molecule HGF receptor (c-met) inhibitors, a micro array analysis of PC-3 cells stimulated by HGF over a time course of 1 hr to 2 days was used. TAQMAN was employed to examine mRNA levels of VEGF, CD44, Fibronectin, and MMP-1, each of which has been shown by others to be induced by HGF. Briefly, RNA is isolated by lysis of cultured cells or homogenization of tumor tissue in a guanidine solution, Trireagent from Molecular Research Center, Inc. The RNA is purified by a Qiagen column methodology under conditions recommended by the manufacturer and DNAse treated. Specific levels of mRNAs for the indicated genes are determined by Real-Time PCR, Taqman analysis using probes and primers specific for the genes examined and purchased from Applied Biosystems and the SDS2.1 quantitation software. Quantitation is performed by comparison of the cycle number where the sample crosses a threshold value vs a standard curve made of a pool of the RNA samples. Normalization is performed by comparing the amount of specific mRNA to that of 18S RNA or GAPDH mRNA. […] This response was then evaluated upon administration of the c-met inhibitor, 3DP-669366. […] The kinetics of the induction and the amplitude of the mRNA levels differ between the cell lines examined. The micro-array analysis identified LDL Receptor 1 (LDL-R1) as another protein that is induced by HGF and whose level of expression is diminished by treatment of cells with a HGF receptor inhibitor. This analysis was then evaluated upon administration of the acylhydrazone series of c-met inhibitors, JNJ-28823184 and JNJ-38429274. In in vivo tumor xenografts, the biomarkers identified by examination of cell culture responses to c-met inhibitors are also modulated in the in vivo setting. In a U87MG tumor xenograft in nude mice, a decrease in the mRNA levels of CD44, VEGF, LDLR1, and Osteopontin was observed.

PC-3 cells = test: Micro array analysis of PC-3 cells stimulated by HGF; format: cell-based
Text: In order to identify biomarkers for the HGF response and potential inhibition of this response by small molecule HGF receptor (c-met) inhibitors, a micro array analysis of PC-3 cells stimulated by HGF over a time course of 1 hr to 2 days was used. TAQMAN was employed to examine mRNA levels of VEGF, CD44, Fibronectin, and MMP-1, each of which has been shown by others to be induced by HGF. Briefly, RNA is isolated by lysis of cultured cells or homogenization of tumor tissue in a guanidine solution, Trireagent from Molecular Research Center, Inc. The RNA is purified by a Qiagen column methodology under conditions recommended by the manufacturer and DNAse treated. Specific levels of mRNAs for the indicated genes are determined by Real-Time PCR, Taqman analysis using probes and primers specific for the genes examined and purchased from Applied Biosystems and the SDS2.1 quantitation software. Quantitation is performed by comparison of the cycle number where the sample crosses a threshold value vs a standard curve made of a pool of the RNA samples. Normalization is performed by comparing the amount of specific mRNA to that of 18S RNA or GAPDH mRNA. […] This response was then evaluated upon administration of the c-met inhibitor, 3DP-669366. […] This analysis was then evaluated upon administration of the acylhydrazone series of c-met inhibitors, JNJ-28823184 and JNJ-38429274. […]

[2] = between 8 and 48 hours following HGF addition, p<0.01

## HGF: hepatocyte growth factor (also known as scatter factor), ligand of the c-met receptor
[1]
  induction of Fibronectin mRNA by HGF: did not show a statistically significant induction
[1]; between 8 and 48 hours following HGF addition, p<0.001
  induction of VEGF mRNA by HGF: statistically significant induction
[1]; [2]
  induction of CD44 mRNA by HGF: statistically significant induction
  induction of MMP-1 mRNA by HGF: statistically significant induction
PC-3 cells
  induction of LDL Receptor 1 (LDL-R1) by HGF: induced
